# Where two headings read alike, the source gives them in different places.
# How the values were obtained:
# Format in all cases: cell-based
# [1] = target: D2 dopaminergic receptors (Homo sapiens, UniProt P14416); test: Cellular functional assay, D2 dopaminergic receptors; conditions: D2S (h), HEK-293 cells; for D2 ag [%]: agonism, percent of control specific agonist response (3 μM dopamine for control); for D2 antag [%]: antagonism, stimulus dopamine (30 nM)
# Experimental: (§1) The results are expressed as a percent of control specific agonist response ((measured specific response/control specific agonist response)×100) obtained in the presence of the test compounds.
# (§2) The EC50 values (concentration producing a half-maximal specific response) and IC50 values (concentration causing a half-maximal inhibition of the control specific agonist response) were determined by non-linear regression analysis of the concentration-response curves generated with mean replicate values using Hill equation curve fitting (Y=D+[(A−D)/(1+(C/C50)nH)], where Y=specific response, D=minimum specific response, A=maximum specific response, C=compound concentration, and C50=EC50 or IC50, and nH=slope factor). This analysis was performed using a software developed at Cerep (Hill software) and validated by comparison with data generated by the commercial software SigmaPlot® 4.0 for Windows® (© 1997 by SPSS Inc.).
# (§3) For the antagonists, the apparent dissociation constants (Kb) were calculated using the modified Cheng Prusoff equation (Kb=IC50/(1+(A/EC50A)), where A=concentration of reference agonist in the assay, and EC50A=EC50 value of the reference agonist).
# [2] = target: D3 dopaminergic receptors (Homo sapiens, UniProt P35462); test: Cellular functional assay, D3 dopaminergic receptors; conditions: D3 (h), CHO cells; for D3 ag [%]: agonism, percent of control specific agonist response (0.3 μM dopamine for control); for D3 antag [%]: antagonism, stimulus dopamine (10 nM)
# Experimental: as §1, §2, §3
# [3] = target: T1, D4 dopaminergic receptors (Homo sapiens, UniProt P21917); test: Cellular functional assay, D4 dopaminergic receptors; conditions: D4.4 (h), CHO cells; for D4 ag [%]: agonism, percent of control specific agonist response (300 nM dopamine for control); for D4 antag [%]: antagonism, stimulus dopamine (100 nM)
# T1 sequence (P21917 1-419): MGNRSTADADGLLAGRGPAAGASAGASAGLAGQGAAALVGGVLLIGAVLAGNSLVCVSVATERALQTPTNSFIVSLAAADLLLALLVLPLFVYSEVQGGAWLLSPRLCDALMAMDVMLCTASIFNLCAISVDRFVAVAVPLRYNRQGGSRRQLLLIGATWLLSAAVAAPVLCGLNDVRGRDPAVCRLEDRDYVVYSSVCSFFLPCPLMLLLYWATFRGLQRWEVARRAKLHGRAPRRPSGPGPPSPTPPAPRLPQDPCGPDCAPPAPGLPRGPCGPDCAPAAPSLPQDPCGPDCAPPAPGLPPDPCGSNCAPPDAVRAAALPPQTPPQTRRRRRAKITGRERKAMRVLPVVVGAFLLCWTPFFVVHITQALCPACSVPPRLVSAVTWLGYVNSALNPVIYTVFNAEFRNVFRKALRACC
# Experimental: as §1, §2, §3
# [4] = target: T2, 5-HT1A serotoninergic receptors (Homo sapiens, UniProt P08908); test: Cellular functional assay, 5-HT1A serotoninergic receptors; conditions: for 5-HT1A ag [%]: agonist mode, percent of control specific agonist response
# T2 sequence (P08908 1-422): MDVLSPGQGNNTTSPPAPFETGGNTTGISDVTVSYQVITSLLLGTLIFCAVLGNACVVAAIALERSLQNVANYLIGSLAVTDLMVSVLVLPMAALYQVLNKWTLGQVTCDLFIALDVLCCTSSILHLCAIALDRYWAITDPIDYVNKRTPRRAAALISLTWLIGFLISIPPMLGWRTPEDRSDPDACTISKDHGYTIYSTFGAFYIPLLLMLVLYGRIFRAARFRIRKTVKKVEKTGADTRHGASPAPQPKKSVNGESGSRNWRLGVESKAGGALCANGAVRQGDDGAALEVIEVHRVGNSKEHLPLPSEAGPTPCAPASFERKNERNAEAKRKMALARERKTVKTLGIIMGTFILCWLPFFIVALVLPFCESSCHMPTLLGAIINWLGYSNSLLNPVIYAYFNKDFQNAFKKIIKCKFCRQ
# Experimental: as §1, §2, §3
# [5] = target: 5-HT2A serotoninergic receptors (Homo sapiens, UniProt P28223); test: Cellular functional assay, 5-HT2A serotoninergic receptors
# Experimental: as §1
# as §2, with “factor).” for “factor). This analysis was performed using a software developed at Cerep (Hill software) and validated by comparison with data generated by the commercial software SigmaPlot® 4.0 for Windows® (© 1997 by SPSS Inc.).”
# as §3
# [6] = target: 5-HT6 serotoninergic receptors (Homo sapiens, UniProt P50406); test: Cellular functional assay, 5-HT6 serotoninergic receptors; conditions: agonist mode; percent of control specific agonist response
# Experimental: as §1, §2, §3
# [7] = target: T3, 5-HT2C serotoninergic receptors (Homo sapiens, UniProt P28335); test: Cellular functional assay, 5-HT2C serotoninergic receptors; conditions: for 5-HT2C ag [%]: agonist mode, percent of control specific agonist response; for 5-HT2C antag [%]: antagonist mode
# T3 sequence (P28335 33-458): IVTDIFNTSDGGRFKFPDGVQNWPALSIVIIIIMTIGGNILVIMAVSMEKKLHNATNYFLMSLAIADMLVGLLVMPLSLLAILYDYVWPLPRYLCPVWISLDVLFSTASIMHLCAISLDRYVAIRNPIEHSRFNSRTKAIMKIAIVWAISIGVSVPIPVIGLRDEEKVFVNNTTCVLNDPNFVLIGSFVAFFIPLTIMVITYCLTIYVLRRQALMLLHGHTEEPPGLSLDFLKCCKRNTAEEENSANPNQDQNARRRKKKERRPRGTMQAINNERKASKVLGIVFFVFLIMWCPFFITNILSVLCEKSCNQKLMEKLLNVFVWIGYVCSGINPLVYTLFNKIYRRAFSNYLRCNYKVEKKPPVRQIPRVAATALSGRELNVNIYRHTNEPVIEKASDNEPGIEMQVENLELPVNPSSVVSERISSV
# Experimental: as §1, §2, §3
# [8] = agonist mode, percent of control specific agonist response
# Sequence of D3 dopaminergic receptors (P35462 whole entry): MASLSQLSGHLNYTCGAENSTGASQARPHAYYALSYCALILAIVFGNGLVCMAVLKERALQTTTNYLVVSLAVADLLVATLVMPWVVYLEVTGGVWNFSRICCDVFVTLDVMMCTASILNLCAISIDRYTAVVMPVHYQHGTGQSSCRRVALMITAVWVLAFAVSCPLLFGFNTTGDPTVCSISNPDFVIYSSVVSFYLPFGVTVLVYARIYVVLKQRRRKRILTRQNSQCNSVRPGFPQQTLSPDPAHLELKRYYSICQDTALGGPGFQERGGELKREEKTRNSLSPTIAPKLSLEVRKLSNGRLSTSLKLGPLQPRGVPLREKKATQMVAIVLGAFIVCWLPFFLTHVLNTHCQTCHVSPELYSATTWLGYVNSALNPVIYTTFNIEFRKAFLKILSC
# Sequence of 5-HT6 serotoninergic receptors (P50406 whole entry): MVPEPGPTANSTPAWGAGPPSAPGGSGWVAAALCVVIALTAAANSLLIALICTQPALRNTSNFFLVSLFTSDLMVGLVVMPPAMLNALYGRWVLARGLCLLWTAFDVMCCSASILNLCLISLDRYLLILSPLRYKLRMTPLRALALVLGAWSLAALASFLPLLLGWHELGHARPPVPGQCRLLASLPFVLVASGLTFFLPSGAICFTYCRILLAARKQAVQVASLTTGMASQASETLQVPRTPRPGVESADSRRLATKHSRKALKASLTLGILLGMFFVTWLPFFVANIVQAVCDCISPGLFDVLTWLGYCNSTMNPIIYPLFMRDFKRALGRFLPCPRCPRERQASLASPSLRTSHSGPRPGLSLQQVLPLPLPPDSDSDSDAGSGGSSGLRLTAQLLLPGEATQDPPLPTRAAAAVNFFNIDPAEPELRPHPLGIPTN
# Sequence of 5-HT2A serotoninergic receptors (P28223 whole entry): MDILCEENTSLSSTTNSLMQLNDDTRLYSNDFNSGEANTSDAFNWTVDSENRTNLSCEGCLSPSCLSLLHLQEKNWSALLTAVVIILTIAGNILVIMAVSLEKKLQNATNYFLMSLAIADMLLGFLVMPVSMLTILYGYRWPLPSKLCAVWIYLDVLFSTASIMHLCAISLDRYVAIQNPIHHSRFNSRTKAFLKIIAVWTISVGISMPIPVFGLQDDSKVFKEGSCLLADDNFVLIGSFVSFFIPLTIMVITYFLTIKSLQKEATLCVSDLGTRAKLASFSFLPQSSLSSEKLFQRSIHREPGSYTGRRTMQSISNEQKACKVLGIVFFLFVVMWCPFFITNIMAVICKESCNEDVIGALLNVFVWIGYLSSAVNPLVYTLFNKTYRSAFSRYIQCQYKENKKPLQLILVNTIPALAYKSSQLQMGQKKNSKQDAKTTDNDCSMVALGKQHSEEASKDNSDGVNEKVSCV
# Sequence of D2 dopaminergic receptors (P14416 whole entry): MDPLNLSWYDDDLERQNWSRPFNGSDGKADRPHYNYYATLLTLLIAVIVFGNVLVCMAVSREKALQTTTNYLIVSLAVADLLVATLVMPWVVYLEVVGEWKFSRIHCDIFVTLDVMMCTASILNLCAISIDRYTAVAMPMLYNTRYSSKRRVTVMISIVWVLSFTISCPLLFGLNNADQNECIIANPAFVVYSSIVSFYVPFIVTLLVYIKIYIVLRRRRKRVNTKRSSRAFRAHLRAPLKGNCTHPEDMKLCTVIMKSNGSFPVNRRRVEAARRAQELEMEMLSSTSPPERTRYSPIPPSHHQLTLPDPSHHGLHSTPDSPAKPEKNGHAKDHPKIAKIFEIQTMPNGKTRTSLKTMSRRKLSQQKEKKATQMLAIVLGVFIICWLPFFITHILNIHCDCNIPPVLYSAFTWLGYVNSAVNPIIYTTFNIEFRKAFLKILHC
SMILES,D2 ag [%] [1] [%],D2 antag [%] [1] [%],D3 ag [%] [2] [%],D3 antag [%] [2] [%],D4 ag [%] [3] [%],D4 antag [%] [3] [%],5-HT1A ag [%] [4] [%],5-HT2A ag [%] [5] [%],5-HT2A antag [%] [5] [%],5-HT6 ag [%] [6] [%],5-HT1A antag [%] ([4]; antagonist mode),"5-HT2A ag [%] [5, 8] [%]",5-HT2A antag [%] ([5]; antagonist mode),5-HT2C ag [%] [7] [%],5-HT2C antag [%] [7] [%]
"O=S(=O)(NC1CN(CCOc2cccc3[nH]ccc23)C1)c1ccc2ccccc2c1 [Compound 50, N-[1-[2-(1H-Indol-4-yloxy)ethyl]azetidin-3-yl]naphthalene-2-sulphonamide]",56,92,85,0,62,32,48,−2,,,,,,,
"Cc1cccc(S(=O)(=O)NC2CCN(CCCc3c[nH]c4ccc(F)cc34)C2)c1 (centres unmarked) [Compound 78, N-[1-[3-(5-Fluoro-1H-indol-3-yl)propyl]pyrrolidin-3-yl]-3-methyl-benzenesulphonamide]",,,89,−10,,,54,51,−1,54,,,,,
"O=S(=O)(NC1CCN(CCCc2c[nH]c3ccc(F)cc23)C1)c1ccc2ccccc2c1 (centres unmarked) [Compound 80, N-[1-[3-(5-Fluoro-1H-indol-3-yl)propyl]pyrrolidin-3-yl]naphthalene-2-sulphonamide]",33,78,91,−5,6,80,42,34,,9,,,,,
"O=S(=O)(NC1CN(CCOc2cccc3c2OCCO3)C1)c1cccc2ccccc12 [Compound 94, N-[1-[2-(2,3-Dihydro-1,4-benzodioxan-8-yloxy)ethyl]azetidin-3-yl]-naphthalene-1-sulphonamide]",45,99,51,38,60,9,41,,,,90,7,48,92,−57
"CC(C)(C)c1ccc(S(=O)(=O)NCC2CN(CCOc3cccc4c3OCCO4)C2)cc1 [Compound 181, 4-tert-Butyl-N-[[1-[2-(2,3-dihydro-1,4-benzodioxin-5-yloxy)ethyl]azetidin-3-yl]methyl]benzenesulphonamide]",,,,,,,66,,,,,,,46,6
"O=S(=O)(NCC1CN(CCOc2cccc3c2OCCO3)C1)c1ccc(Cl)c(Cl)c1 [Compound 183, 3,4-Dichloro-N-[[1-[2-(2,3-dihydro-1,4-benzodioxin-5-yloxy)ethyl]azetidin-3-yl]methyl]benzenesulphonamide]",8,53,,,,,71,1,,,,,,50,12
"Cc1c(S(=O)(=O)N[C@H]2CCN(CCCc3noc4cc(F)ccc34)C2)sc2ccc(F)cc12 [Compound 203, 5-Fluoro-N-[(3S)-1-[3-(6-fluoro-1,2-benzoxazol-3-yl)propyl]pyrrolidin-3-yl]-3-methyl-benzothiophene-2-sulphonamide]",0,80,11,65,,,,,,−2,,−1,,1,
"Cc1ccc2sc(S(=O)(=O)N[C@@H]3CCN(CCCc4noc5cc(F)ccc45)C3)cc2c1 [Compound 228, N-[(3R)-1-[3-(6-Fluoro-1,2-benzoxazol-3-yl)propyl]pyrrolidin-3-yl]-5-methyl-benzothiophene-2-sulphonamide]",−1,94,−15,98,,,,,,−2,,1,,0,
"COc1ccc2cc(S(=O)(=O)N[C@@H]3CCN(CCCc4noc5cc(F)ccc45)C3)ccc2c1 [Compound 230, N-[(3R)-1-[3-(6-Fluoro-1,2-benzoxazol-3-yl)propyl]pyrrolidin-3-yl]-6-methoxy-naphthalene-2-sulphonamide]",3,94,0,89,,,,,,−1,,−2,,−2,

# Source: patent US20140135310A1, “SULPHONAMIDE DERIVATIVES OF ALICYCLIC AMINES FOR THE TREATMENT OF CENTRAL NERVOUS SYSTEM DISEASES” (Adamed Sp. z o.o., priority 2011, published 2014)
